According to US20130273027A1, “MUTANT PROTEASES AND METHODS OF USE THEREOF” (Progenra, Inc., priority 2012, published 2013):

What was measured:
USP14 mutant BL1-USP21 = target: T1, USP14 mutant BL1-USP21 (Homo sapiens, UniProt P54578, DEL335-341/INS333SRGSI); experiment: Screening assay with USP14 mutant BL1-USP21, ubiquitin-rhodamine 110 cleavage; format: biochemical; settings: 63.75 nM mutant USP14 preincubated 30 minutes; Ub-Rh110; normalized to DMSO (0%) and 10 mM NEM (100%); FIG. 7
T1 construct: a full-length cDNA clone encoding full-length USP14 isoform a; made in house; host or cells: E. coli Rosetta 2 (DE3) pLysS
T1 sequence (P54578 with tags, fused parts or gaps INS333SRGSI/DEL335-341): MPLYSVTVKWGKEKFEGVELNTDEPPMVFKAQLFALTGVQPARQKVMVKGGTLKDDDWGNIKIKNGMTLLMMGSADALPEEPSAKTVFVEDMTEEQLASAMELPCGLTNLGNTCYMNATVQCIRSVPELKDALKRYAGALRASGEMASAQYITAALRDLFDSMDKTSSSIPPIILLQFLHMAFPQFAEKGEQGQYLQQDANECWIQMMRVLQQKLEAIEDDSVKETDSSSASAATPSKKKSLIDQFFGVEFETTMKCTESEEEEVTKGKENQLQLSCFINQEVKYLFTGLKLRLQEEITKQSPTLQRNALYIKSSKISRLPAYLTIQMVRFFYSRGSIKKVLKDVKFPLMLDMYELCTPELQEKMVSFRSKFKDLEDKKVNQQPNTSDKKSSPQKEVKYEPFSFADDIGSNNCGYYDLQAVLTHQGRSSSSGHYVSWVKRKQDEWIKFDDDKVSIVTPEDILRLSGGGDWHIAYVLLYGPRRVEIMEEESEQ
Method: Test compounds were diluted in DMSO to the appropriate concentration before dispensing 2 μl of each compound into a black walled 96 well plate. The compounds were preincubated with 80 μl of reaction buffer containing 63.75 nM mutant USP14 for 30 minutes before adding 20 μl of 510 nM ubiquitin-rhodamine 110 in reaction buffer. The plates were incubated at room temperature before reading on a fluorimeter equipped with excitation and emission filters of […] respectively and a 510 nm dichroic mirror within the linear range of the assay. […] FIG. 7 provides a graph of the results.

USP14 mutant BL2-DNHG = target: T2, USP14 mutant BL2-DNHG (Homo sapiens, UniProt P54578, DEL429-429/S430D/S431N/S432H/S433G); experiment: Screening assay with USP14 mutant BL2-DNHG, ubiquitin-rhodamine 110 cleavage; format: biochemical; settings: 1.275 μM mutant USP14 preincubated 30 minutes; Ub-Rh110; normalized to DMSO (0%) and 10 mM NEM (100%); FIG. 8
T2 construct: a full-length cDNA clone encoding full-length USP14 isoform a; 6xHis (N); yeast SUMO (S. cerevisiae Smt3) (N); made in house; host or cells: E. coli (Rosetta 2 (DE3) pLysS stated for the pE-SUMOpro-USP14 construct)
T2 sequence (P54578 with tags, fused parts or gaps DEL429-429/S430D/S431N/S432H/S433G): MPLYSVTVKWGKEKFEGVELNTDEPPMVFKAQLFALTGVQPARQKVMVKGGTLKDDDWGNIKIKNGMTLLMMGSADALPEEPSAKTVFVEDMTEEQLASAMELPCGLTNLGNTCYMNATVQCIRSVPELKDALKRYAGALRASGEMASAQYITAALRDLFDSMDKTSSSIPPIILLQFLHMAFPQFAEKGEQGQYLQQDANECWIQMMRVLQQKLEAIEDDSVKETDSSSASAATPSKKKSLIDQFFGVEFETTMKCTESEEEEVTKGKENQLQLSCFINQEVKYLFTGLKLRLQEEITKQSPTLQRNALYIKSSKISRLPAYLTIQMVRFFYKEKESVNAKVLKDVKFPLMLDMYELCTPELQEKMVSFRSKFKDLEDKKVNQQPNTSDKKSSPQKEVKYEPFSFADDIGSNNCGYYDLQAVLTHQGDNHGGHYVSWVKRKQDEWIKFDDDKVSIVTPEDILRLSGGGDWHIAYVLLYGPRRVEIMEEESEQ
Method: Another screening assay was performed with the USP14 mutant BL2-DNHG. Test compounds were diluted in DMSO to the appropriate concentration before dispensing 2 μl of each compound into a black walled 96 well plate. The compounds were preincubated with 80 μl of reaction buffer containing 1.275 μM mutant USP14 for 30 minutes before adding 20 μl of 510 nM ubiquitin-rhodamine 110 in reaction buffer. The plates were incubated at room temperature before reading on a fluorimeter equipped with excitation and emission filters of 485 and 528 nm respectively and a 510 nm dichroic mirror within the linear range of the assay.

| SMILES | inhibition of USP14 mutant (BL1-USP21) (USP14 mutant BL1-USP21) | inhibition of USP14 mutant (BL2-DNHG) (USP14 mutant BL2-DNHG) |
| --- | --- | --- |
| N#CSc1cc(SC#N)c(N)nc1N [PR-619] | inhibit | inhibit |
| CC(=O)c1cc([N+](=O)[O-])c(Sc2ccc(F)cc2F)s1 [P22077] | do not inhibit | do not inhibit |
